{"source": "paper PMC5601486", "about": "“Identification of 4-phenylquinolin-2(1H)-one as a specific allosteric inhibitor of Akt” (Scientific Reports, 2017)", "key": {"[1]": {"system": "Akt T308 phosphorylation", "experiment": "Western blot analysis of T308 phosphorylation", "assay_type": "cell-based", "settings": "Mus musculus, N2a, 0.5 h; Neuro 2A cells, G7 30 min then IGF 30 min", "procedure": "The following criteria were applied for hit selection from the primary screen: 1, hits in robust curve classes (1/2/3) with efficacy greater than 30% were considered active; 2, these hits were filtered for donor interference; 3, hits were further filtered by reactive and promiscuous functional groups, as previously described4; 4, hits were clustered by structural similarity using Leadscope Hosted Client (Leadscope Inc., Columbus, […]\n(§1) Neuro 2A cells were seeded in 12-well plates in DMEM containing 5% FBS for 24 hr.\n(§2) After overnight serum starvation (in 0% FBS DMEM), cells were incubated for 30 min at 37 °C with G7 or LY294002 or Torin 1 (Sigma Aldrich) at various concentrations, or DMSO control. IGF-1 was added to each well at a final concentration of 100 ng/mL. After 30-min incubation cells were washed with cold PBS and lysed with 50 µL lysis buffer containing 1% Triton X-100 and protease/phosphatase inhibitors (Cell Signaling Technology) or RIPA buffer (Santa Cruz Biotech). […]\n(§3) anti- GAPDH (14C10) antibody (#2118) (all antibodies were from Cell Signaling Technology unless indicated, 1:1000 dilution was used) at 4°C overnight, washed three times with TBS-T, then incubated with peroxidase-conjugated secondary antibody (Sigma-Aldrich) for 1 hr at room temperature. […] Band intensity was quantitated using Kodak 1D imaging analysis software. […]"}, "[2]": {"system": "FoxO1 phosphorylation", "experiment": "Western blot of Akt downstream signaling", "assay_type": "cell-based, Mouse", "settings": "Neuro 2A cells, dose-dependent", "procedure": "as §1\nas §2, with “Biotech). Samples were electrophoresed in 4–12% Bis-Tris gels (Life Technologies) at 150 V using MOPS SDS running buffer. Proteins were transferred electrophoretically to a PVDF or nitrocellulose membrane. For detection of cleaved” for “Biotech).”\n(§4) caspase 3 a Trans-Blot Turbo Transfer System (Bio-Rad, 25 V for 25 min) with PVDF membrane were used. […]\nas §3"}, "[3]": {"system": "GSK-3β phosphorylation", "experiment": "Western blot of Akt downstream signaling", "assay_type": "cell-based, Mouse", "settings": "Neuro 2A cells, dose-dependent", "procedure": "as §1\nas §2, with “Biotech). Samples were electrophoresed in 4–12% Bis-Tris gels (Life Technologies) at 150 V using MOPS SDS running buffer. Proteins were transferred electrophoretically to a PVDF or nitrocellulose membrane. For detection of cleaved” for “Biotech).”\nas §4, §3"}, "[4]": {"system": "cleaved caspase 3", "experiment": "Western blot of cleaved caspase 3", "assay_type": "cell-based, Mouse", "settings": "Neuro 2A cells", "procedure": "as §1\nas §2, with “Biotech). Samples were electrophoresed in 4–12% Bis-Tris gels (Life Technologies) at 150 V using MOPS SDS running buffer. Proteins were transferred electrophoretically to a PVDF or nitrocellulose membrane. For detection of cleaved” for “Biotech).”\nas §4, §3"}, "[5]": {"system": "AKT1", "experiment": "KINOMEscan", "settings": "50000 nM", "experimental": "KINOMEscan™ selectivity screen\n(§5) The assay was perfor med at DiscoveRx Corporation according the methods published previously5. Briefly, Kinase-tagged T7 phage strains were grown in parallel in an E. coli host derived from the BL21 strain. E. coli were grown to log-phase and infected with T7 phage from a frozen stock and incubated with shaking at 32°C until lysis (90-150 minutes). The kinases were produced in HEK-293 cells and subsequently tagged with DNA for qPCR detection. Streptavidin-coated magnetic beads were treated with biotinylated small molecule ligands to generate affinity resins for kinase\n(§6) inhibitor or DMSO control was performed in polypropylene 384-well plates for 1 hr at room temperature. After wash with PBS buffer containing 0.05% Tween 20, the beads were incubated in elution buffer (PBS containing 0.05 % Tween 20 and 0.5 μM non-biotinylated affinity ligand) for 30 minutes at room temperature. The kinase concentration in the eluates was measured by qPCR."}, "[6]": {"system": "EGFR(T790M)", "experiment": "KINOMEscan", "settings": "50000 nM", "experimental": "KINOMEscan™ selectivity screen\nas §5, §6"}, "[7]": {"system": "MLK2", "experiment": "KINOMEscan", "settings": "50000 nM", "experimental": "KINOMEscan™ selectivity screen\nas §5, §6"}, "[8]": {"system": "TIE2", "experiment": "KINOMEscan", "settings": "50000 nM", "experimental": "KINOMEscan™ selectivity screen\nas §5, §6"}, "[9]": {"system": "YANK1", "experiment": "KINOMEscan", "settings": "50000 nM", "experimental": "KINOMEscan™ selectivity screen\n(§7) Briefly, Kinase-tagged T7 phage strains were grown in parallel in an E. coli host derived from the BL21 strain. E. coli were grown to log-phase and infected with T7 phage from a frozen stock and incubated with shaking at 32°C until lysis (90-150 minutes). The kinases were produced in HEK-293 cells and subsequently tagged with DNA for qPCR detection. Streptavidin-coated magnetic beads were treated with biotinylated small molecule ligands to generate affinity resins for kinase\nas §6"}, "[10]": {"system": "TAOK1", "experiment": "KINOMEscan", "settings": "50000 nM", "experimental": "KINOMEscan™ selectivity screen\nas §5, §6"}, "[11]": {"system": "NEK6", "experiment": "KINOMEscan", "settings": "50000 nM", "experimental": "KINOMEscan™ selectivity screen\nas §5, §6"}, "[12]": {"system": "GRK2", "experiment": "KINOMEscan", "settings": "50000 nM", "experimental": "KINOMEscan™ selectivity screen\nas §7, §6"}, "[13]": {"system": "EGFR", "experiment": "KINOMEscan", "settings": "50000 nM", "experimental": "KINOMEscan™ selectivity screen\nas §5, §6"}, "[14]": {"system": "FRK", "experiment": "KINOMEscan", "settings": "50000 nM", "experimental": "KINOMEscan™ selectivity screen\nas §5, §6"}, "[15]": {"system": "EPHA6", "experiment": "KINOMEscan", "settings": "50000 nM", "experimental": "KINOMEscan™ selectivity screen\nas §7, §6"}, "[16]": {"system": "MLK3", "experiment": "KINOMEscan", "settings": "50000 nM", "experimental": "KINOMEscan™ selectivity screen\nas §5, §6"}, "[17]": {"system": "WNK4", "experiment": "KINOMEscan", "settings": "50000 nM", "experimental": "as §7, §6"}, "[18]": {"system": "JAK1(JH1domain-catalytic)", "experiment": "KINOMEscan", "settings": "50000 nM", "experimental": "KINOMEscan™ selectivity screen\nas §5, §6"}, "[19]": {"system": "PIK3CA(E542K)", "experiment": "KINOMEscan", "settings": "50000 nM", "experimental": "KINOMEscan™ selectivity screen\nas §5, §6"}, "[20]": {"system": "FGFR2", "experiment": "KINOMEscan", "settings": "50000 nM", "experimental": "KINOMEscan™ selectivity screen\nas §5, §6"}, "[21]": {"system": "NEK9", "experiment": "KINOMEscan", "settings": "50000 nM", "experimental": "KINOMEscan™ selectivity screen\nas §5, §6"}, "[22]": {"system": "ABL1-phosphorylated", "experiment": "KINOMEscan", "settings": "50000 nM", "experimental": "KINOMEscan™ selectivity screen\nas §5, §6"}, "[23]": {"system": "ANKK1", "experiment": "KINOMEscan", "settings": "50000 nM", "experimental": "KINOMEscan™ selectivity screen\nas §5, §6"}, "[24]": {"system": "TEC", "experiment": "KINOMEscan", "settings": "50000 nM", "experimental": "KINOMEscan™ selectivity screen\nas §7, §6"}, "[25]": {"system": "EGFR(E746-A750del)", "experiment": "KINOMEscan", "settings": "50000 nM", "experimental": "KINOMEscan™ selectivity screen\nas §7, §6"}, "[26]": {"system": "HIPK3", "experiment": "KINOMEscan", "settings": "50000 nM", "experimental": "KINOMEscan™ selectivity screen\nas §7, §6"}, "[27]": {"system": "MKNK2", "experiment": "KINOMEscan", "settings": "50000 nM", "experimental": "KINOMEscan™ selectivity screen\nas §7, §6"}, "[28]": {"system": "LRRK2(G2019S)", "experiment": "KINOMEscan", "settings": "50000 nM", "experimental": "KINOMEscan™ selectivity screen\nas §5, §6"}, "[29]": {"system": "AAK1", "experiment": "KINOMEscan", "settings": "50000 nM", "experimental": "KINOMEscan™ selectivity screen\nas §5, §6"}, "[30]": {"system": "TLK1", "experiment": "KINOMEscan", "settings": "50000 nM", "experimental": "KINOMEscan™ selectivity screen\nas §5, §6"}, "[31]": {"system": "JAK3(JH1domain-catalytic)", "experiment": "KINOMEscan", "settings": "50000 nM", "experimental": "KINOMEscan™ selectivity screen\n(§8) The assay was perfor med at DiscoveRx Corporation according the methods published previously5. […] The kinases were produced in HEK-293 cells and subsequently tagged with DNA for qPCR detection. Streptavidin-coated magnetic beads were treated with biotinylated small molecule ligands to generate affinity resins for kinase\nas §6"}, "[32]": {"system": "GRK7", "experiment": "KINOMEscan", "settings": "50000 nM", "experimental": "KINOMEscan™ selectivity screen\nas §8, §6"}, "[33]": {"system": "PIM1", "experiment": "KINOMEscan", "settings": "50000 nM", "experimental": "KINOMEscan™ selectivity screen\nas §5, §6"}, "[34]": {"system": "CSNK1D", "experiment": "KINOMEscan", "settings": "50000 nM", "experimental": "KINOMEscan™ selectivity screen\nas §5, §6"}, "[35]": {"system": "MERTK", "experiment": "KINOMEscan", "settings": "50000 nM", "experimental": "KINOMEscan™ selectivity screen\nas §5, §6"}}}
{"smiles": "Oc1cc(-c2ccccc2)c2ccccc2n1", "note": "[G7, 4-phenylquinolin-2(1H)-one]", "values": [{"measurement": "IC50", "setting": "[1]", "value": 4.9, "unit": "µM"}, {"measurement": "phosphorylation of FoxO1", "setting": "[2]", "value": "decreased"}, {"measurement": "phosphorylation of GSK-3β", "setting": "[3]", "value": "decreased"}, {"measurement": "levels of the cleaved caspase 3", "setting": "[4]", "value": "elevated levels"}, {"measurement": "Percent Control", "setting": "[5]", "value": 100, "unit": "%"}, {"measurement": "Percent Control", "setting": "[6]", "value": 100, "unit": "%"}, {"measurement": "Percent Control", "setting": "[7]", "value": 100, "unit": "%"}, {"measurement": "Percent Control", "setting": "[8]", "value": 100, "unit": "%"}, {"measurement": "Percent Control", "setting": "[9]", "value": 100, "unit": "%"}, {"measurement": "Percent Control", "setting": "[10]", "value": 95, "unit": "%"}, {"measurement": "Percent Control", "setting": "[11]", "value": 92, "unit": "%"}, {"measurement": "Percent Control", "setting": "[12]", "value": 91, "unit": "%"}, {"measurement": "Percent Control", "setting": "[13]", "value": 89, "unit": "%"}, {"measurement": "Percent Control", "setting": "[14]", "value": 89, "unit": "%"}, {"measurement": "Percent Control", "setting": "[15]", "value": 88, "unit": "%"}, {"measurement": "Percent Control", "setting": "[16]", "value": 88, "unit": "%"}, {"measurement": "Percent Control", "setting": "[17]", "value": 88, "unit": "%"}, {"measurement": "Percent Control", "setting": "[18]", "value": 82, "unit": "%"}, {"measurement": "Percent Control", "setting": "[19]", "value": 82, "unit": "%"}, {"measurement": "Percent Control", "setting": "[20]", "value": 80, "unit": "%"}, {"measurement": "Percent Control", "setting": "[21]", "value": 80, "unit": "%"}, {"measurement": "Percent Control", "setting": "[22]", "value": 73, "unit": "%"}, {"measurement": "Percent Control", "setting": "[23]", "value": 73, "unit": "%"}, {"measurement": "Percent Control", "setting": "[24]", "value": 71, "unit": "%"}, {"measurement": "Percent Control", "setting": "[25]", "value": 70, "unit": "%"}, {"measurement": "Percent Control", "setting": "[26]", "value": 65, "unit": "%"}, {"measurement": "Percent Control", "setting": "[27]", "value": 65, "unit": "%"}, {"measurement": "Percent Control", "setting": "[28]", "value": 63, "unit": "%"}, {"measurement": "Percent Control", "setting": "[29]", "value": 62, "unit": "%"}, {"measurement": "Percent Control", "setting": "[30]", "value": 59, "unit": "%"}, {"measurement": "Percent Control", "setting": "[31]", "value": 56, "unit": "%"}, {"measurement": "Percent Control", "setting": "[32]", "value": 52, "unit": "%"}, {"measurement": "Percent Control", "setting": "[33]", "value": 49, "unit": "%"}, {"measurement": "Percent Control", "setting": "[34]", "value": 45, "unit": "%"}, {"measurement": "Percent Control", "setting": "[35]", "value": 42, "unit": "%"}]}
